Source: patent publication US9932325B2 (Denali Therapeutics Inc., priority 2015, dated 2018)
Where “and” joins values, the source holds several entries; their conditions need not be identical. Equal entries are not always repeated.

Experiments:
LRRK2 G2019S enzyme = LRRK2 G2019S enzyme (Homo sapiens (Human), UniProt Q5S007, G2019S); assay: LRRK2 G2019S TR-FRET biochemical assay (LRRKtide substrate); conditions: 134 μM ATP
In short: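 Kinase and LRRKtide substrate were preincubated with compound 20 minutes at 23° C, then ATP was added and the reaction ran 60 minutes at 23° C. Detection used 2 nM antibody with 10 mM EDTA in TR-FRET dilution buffer, 60 minutes at 23° C, read by TR-FRET.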

[1] = Metabolic stability in human liver microsomes; type: in vitro ADME; conditions: 1 μM compound, 0.5 mg/mL protein, projected hepatic clearance, well-stirred model
Procedure: Metabolic stability of compounds was evaluated in human liver microsomes (from Corning or XenoTech, LLC) using a 96-well plate assay format. Compounds were incubated at 37° C. at 1 μM final concentration in the microsomal matrix (0.5 mg/mL total protein) in the presence or absence of NADPH cofactor. An NADPH regenerating system, comprised of NADP, MgCl2, isocitric acid, and isocitrate dehydrogenase, was used in the assay. Enzymatic reactions were conducted for 0, 5, 10, 20, 30, or 60 min before termination by addition of acetonitrile containing tolbutamide and labetalol internal standards (100 ng/mL). After shaking for 10 min, plates were subjected to centrifugation (4000 rpm at 4° C.) for 20 min and supernatants were mixed 1:3 with HPLC grade water. Samples were analyzed by LC-MS/MS using appropriate MRM transitions for each analyte and internal standard (IS). Analyte/IS peak area ratios were used to determine percent compound remaining at each time point. Intrinsic clearance (Clint; expressed as mL·min^−1·mg^−1) was calculated from the first order elimination constant (k, min^−1) of test article decay and the volume of the incubation. These values were scaled to intrinsic organ clearance (Clint) using human specific scaling factors (48.8 mg microsomal protein per g liver; 25.7 g liver per kg body weight). Organ Clint was subsequently converted to hepatic clearance (CLhep, mL·min-1·kg-1) using the well-stirred model of hepatic elimination, where Qh is human hepatic blood flow (20.7 mL·min-1·kg-1).
CLhep is the projected human clearance in the liver based on the above in vitro assay. A lower value is indicative of less compound being removed by the liver.

MDR1 (P-glycoprotein) = MDR1 (P-glycoprotein) (Homo sapiens (Human), UniProt P08183); assay: MDR1-MDCK permeability, bidirectional assay; type: in vitro ADME; conditions: dog, MDR1-MDCK cells, monolayer efflux ratio, pH 7.4, read-out: MDR1 ER
Chain of MDR1 (P-glycoprotein) (P08183 whole entry): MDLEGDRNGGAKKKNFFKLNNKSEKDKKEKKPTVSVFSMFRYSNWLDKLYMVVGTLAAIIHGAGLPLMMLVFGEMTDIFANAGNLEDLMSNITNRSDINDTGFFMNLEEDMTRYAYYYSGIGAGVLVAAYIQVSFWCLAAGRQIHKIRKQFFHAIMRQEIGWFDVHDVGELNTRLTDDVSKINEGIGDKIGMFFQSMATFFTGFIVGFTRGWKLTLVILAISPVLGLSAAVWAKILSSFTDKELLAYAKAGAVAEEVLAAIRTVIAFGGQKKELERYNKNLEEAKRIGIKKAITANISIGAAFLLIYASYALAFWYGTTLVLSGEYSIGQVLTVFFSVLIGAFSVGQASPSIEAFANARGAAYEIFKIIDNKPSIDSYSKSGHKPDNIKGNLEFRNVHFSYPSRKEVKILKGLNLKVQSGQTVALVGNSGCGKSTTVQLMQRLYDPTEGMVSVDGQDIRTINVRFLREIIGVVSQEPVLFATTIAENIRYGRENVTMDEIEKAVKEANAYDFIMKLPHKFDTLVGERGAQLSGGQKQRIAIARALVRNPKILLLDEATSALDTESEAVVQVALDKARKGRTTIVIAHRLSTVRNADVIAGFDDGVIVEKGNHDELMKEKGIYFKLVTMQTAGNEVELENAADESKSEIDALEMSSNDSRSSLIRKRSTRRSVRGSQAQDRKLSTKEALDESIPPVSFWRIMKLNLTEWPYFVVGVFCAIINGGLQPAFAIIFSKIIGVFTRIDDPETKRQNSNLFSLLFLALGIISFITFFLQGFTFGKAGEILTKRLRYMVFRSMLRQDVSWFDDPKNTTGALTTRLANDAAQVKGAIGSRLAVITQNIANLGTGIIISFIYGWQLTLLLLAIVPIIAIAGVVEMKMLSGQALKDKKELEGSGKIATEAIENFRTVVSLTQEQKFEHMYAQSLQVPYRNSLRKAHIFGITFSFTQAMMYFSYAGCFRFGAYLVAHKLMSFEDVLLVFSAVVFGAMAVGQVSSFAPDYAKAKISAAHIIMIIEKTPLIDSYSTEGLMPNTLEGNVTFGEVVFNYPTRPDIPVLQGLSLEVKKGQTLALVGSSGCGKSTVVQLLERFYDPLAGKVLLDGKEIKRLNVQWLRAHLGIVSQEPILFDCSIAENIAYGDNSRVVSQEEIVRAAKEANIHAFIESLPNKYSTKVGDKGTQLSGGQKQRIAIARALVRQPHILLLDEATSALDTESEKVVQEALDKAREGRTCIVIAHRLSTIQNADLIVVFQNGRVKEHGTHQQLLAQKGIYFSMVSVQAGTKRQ
Procedure: The blood brain barrier (BBB) separates circulating blood from the extracellular fluid of the central nervous system (CNS). The passive membrane permeability (Papp) and MDR1 (P-glycoprotein) substrate efflux potential were determined using the MDR1-MDCK cell line as an in vitro model of the effective permeability of a compound through the BBB. A bidirectional assay was conducted in pre-plated MDR1-MDCK cells using a 12 or 96-well plate in the absence or presence of MDR1 inhibitor (GF120918 or Valspodar). Assays were run in duplicate in transport buffer (HBSS, pH 7.4) for 90 or 120 min (minutes) at 37° C., using a test article concentration of 1 μM. Monolayer integrity was confirmed using Lucifer yellow, and appropriate positive controls for passive permeability and MDR1 transport were included in each experiment. Following incubation, samples from donor and receiver compartments were removed and quenched with acetonitrile containing an appropriate internal standard (IS). Protein was precipitated by centrifugation for 10 min at 3220 g, and supernatants were diluted in ultra-pure water (if necessary) prior to analysis by LC-MS/MS using appropriate MRM transitions for analytes and IS. Papp (apparent permeability expressed in cm/sec [centimeter/second]) values were calculated according to the following equation:
[formula] where VR is the solution volume in the receiver chamber (apical or basolateral side), Area is the surface area for the insert membrane), Time is incubation time expressed in seconds, CR is the peak area ratio (analyte/IS) in the receiver chamber, CA is the average of the initial and final concentrations in the donor chamber, and Co is the initial peak area ratio in the donor chamber. Papp was determined in both the apical to basolateral (A→B) and basolateral to apical (B→A) directions.
Monolayer efflux ratios (ER) were derived using the following equation: […]

Chain of LRRK2 G2019S enzyme (Q5S007 whole entry G2019S): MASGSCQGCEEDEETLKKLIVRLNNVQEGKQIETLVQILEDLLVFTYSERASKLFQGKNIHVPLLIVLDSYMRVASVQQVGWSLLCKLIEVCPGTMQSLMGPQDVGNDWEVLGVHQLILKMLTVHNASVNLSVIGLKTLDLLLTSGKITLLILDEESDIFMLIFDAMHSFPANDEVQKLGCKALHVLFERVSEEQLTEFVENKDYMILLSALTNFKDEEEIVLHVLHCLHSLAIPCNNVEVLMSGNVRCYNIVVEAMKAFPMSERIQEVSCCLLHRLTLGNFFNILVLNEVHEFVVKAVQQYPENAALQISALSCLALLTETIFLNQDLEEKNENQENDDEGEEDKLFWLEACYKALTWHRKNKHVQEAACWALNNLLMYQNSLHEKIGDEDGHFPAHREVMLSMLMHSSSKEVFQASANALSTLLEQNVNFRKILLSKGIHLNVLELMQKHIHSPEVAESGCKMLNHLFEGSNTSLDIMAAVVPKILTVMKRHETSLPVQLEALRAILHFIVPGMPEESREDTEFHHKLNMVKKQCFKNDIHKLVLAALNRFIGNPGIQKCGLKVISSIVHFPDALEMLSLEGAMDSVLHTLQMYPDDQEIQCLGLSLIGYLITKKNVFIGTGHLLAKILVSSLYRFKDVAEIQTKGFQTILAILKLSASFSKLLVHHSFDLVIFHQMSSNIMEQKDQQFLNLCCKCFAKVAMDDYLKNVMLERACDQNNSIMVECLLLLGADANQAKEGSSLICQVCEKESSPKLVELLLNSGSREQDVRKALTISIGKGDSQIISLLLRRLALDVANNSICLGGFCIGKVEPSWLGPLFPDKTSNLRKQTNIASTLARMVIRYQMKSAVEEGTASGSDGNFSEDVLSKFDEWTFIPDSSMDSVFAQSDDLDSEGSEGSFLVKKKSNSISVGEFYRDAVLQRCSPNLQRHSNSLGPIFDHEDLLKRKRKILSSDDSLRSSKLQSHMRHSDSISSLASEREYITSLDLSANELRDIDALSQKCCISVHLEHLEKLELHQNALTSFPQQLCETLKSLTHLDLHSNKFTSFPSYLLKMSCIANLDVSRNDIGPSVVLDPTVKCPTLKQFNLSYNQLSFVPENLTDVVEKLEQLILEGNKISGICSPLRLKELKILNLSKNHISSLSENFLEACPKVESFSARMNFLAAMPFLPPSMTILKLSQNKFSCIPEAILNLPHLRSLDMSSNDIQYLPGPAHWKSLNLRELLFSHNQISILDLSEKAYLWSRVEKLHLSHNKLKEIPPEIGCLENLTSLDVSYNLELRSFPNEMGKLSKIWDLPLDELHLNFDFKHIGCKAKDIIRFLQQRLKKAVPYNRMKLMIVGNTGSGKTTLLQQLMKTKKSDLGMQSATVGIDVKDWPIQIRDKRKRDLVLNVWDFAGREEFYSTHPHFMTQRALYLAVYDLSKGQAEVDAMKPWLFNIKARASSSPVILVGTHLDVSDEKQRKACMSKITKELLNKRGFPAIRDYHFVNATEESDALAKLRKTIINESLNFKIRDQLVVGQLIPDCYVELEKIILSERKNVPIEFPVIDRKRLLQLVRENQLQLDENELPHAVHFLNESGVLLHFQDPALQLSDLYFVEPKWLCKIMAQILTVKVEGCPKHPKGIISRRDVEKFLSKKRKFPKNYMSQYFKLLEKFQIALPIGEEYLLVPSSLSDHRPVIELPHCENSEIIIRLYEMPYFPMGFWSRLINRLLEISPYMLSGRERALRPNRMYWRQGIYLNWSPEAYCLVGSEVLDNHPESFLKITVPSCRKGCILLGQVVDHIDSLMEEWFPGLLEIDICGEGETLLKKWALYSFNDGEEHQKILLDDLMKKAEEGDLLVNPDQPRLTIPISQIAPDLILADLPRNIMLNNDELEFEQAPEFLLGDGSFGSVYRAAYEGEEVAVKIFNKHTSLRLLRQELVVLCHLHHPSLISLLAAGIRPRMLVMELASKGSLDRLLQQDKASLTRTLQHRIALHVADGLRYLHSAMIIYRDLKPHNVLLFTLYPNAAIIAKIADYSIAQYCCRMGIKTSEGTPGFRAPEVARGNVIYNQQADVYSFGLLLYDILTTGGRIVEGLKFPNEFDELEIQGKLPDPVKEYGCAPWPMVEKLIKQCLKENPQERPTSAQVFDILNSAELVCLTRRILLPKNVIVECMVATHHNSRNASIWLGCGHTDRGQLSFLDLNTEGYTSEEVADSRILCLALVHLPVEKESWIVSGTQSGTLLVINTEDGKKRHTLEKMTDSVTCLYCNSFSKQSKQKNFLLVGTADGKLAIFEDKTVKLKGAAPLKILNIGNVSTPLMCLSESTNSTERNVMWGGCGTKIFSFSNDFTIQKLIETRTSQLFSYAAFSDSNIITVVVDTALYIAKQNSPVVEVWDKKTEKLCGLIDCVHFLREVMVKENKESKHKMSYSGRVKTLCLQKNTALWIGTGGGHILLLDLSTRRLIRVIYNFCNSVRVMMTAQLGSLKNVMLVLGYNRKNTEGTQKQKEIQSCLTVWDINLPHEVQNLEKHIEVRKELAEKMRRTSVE

SMILES | IC50 (LRRK2 G2019S enzyme) | Human liver microsomes CLhep [1] | efflux ratio at 1 μM (MDR1 (P-glycoprotein))
[2H]C([2H])([2H])n1nc(C(C)(C)n2nccn2)cc1Nc1ncc(C(F)(F)F)c(NCC)n1 [Compound 34, N4-Ethyl-N2-[1-(^2H3)methyl-3-[2-(2H-1,2,3-triazol-2-yl)propan-2-yl]-1H-pyrazol-5-yl]-5-(trifluoromethyl)pyrimidine-2,4-diamine] | < 30 nM and 2.31 nM | 0.045 L/h/kg | 4.8
CCNc1nc(Nc2cc(C3(C)CCOC3=O)nn2C2CC2)ncc1Br (single isomer, unassigned) [Compound 150] | < 30 nM and 1.22 nM | 0.66462 L/h/kg | –
CCNc1nc(Nc2cc(C(C)(C)C#N)nn2C2CC2)ncc1Br [Compound 141] | < 30 nM and 3.94 nM | 0.81048 L/h/kg | –
CNc1nc(Nc2cn(C(C)(C)c3ncn(C)n3)nc2C)ncc1C(F)(F)F [Compound 218] | < 30 nM and 5.91 nM | 0 L/h/kg | 86
CCNc1nc(Nc2cc(C(C)(C)n3nccn3)nn2C2CC2)ncc1C(F)(F)F [Compound 78, N2-[2-cyclopropyl-5-[1-methyl-1-(triazol-2-yl)ethyl]pyrazol-3-yl]-N4-ethyl-5-(trifluoromethyl)pyrimidine-2,4-diamine] | < 30 nM and 3.69 nM | 0.289 L/h/kg | 2
CCNc1nc(Nc2cc(C3(C)CCn4ncnc43)nn2C2CC2)ncc1C(F)(F)F (single isomer, unassigned) [Compound 172] | < 30 nM and 1.47 nM | 1.19 L/h/kg | 42
CCNc1nc(Nc2cn(C(C)(C)C#N)nc2C2CC2)ncc1C(F)(F)F [Compound 118] | < 30 nM and 1.55 nM | 0.469 L/h/kg | 0.83
CCNc1nc(Nc2cn(C(C)(C)C#N)nc2C2CC2)ncc1Br [Compound 93] | < 30 nM and 1.87 nM | 1.0598 L/h/kg | –
[2H]C([2H])([2H])n1nc(C(C)(C)n2nccn2)cc1Nc1ncc(C(F)(F)F)c(NC2CC2)n1 [Compound 68] | < 30 nM and 2.23 nM | 0.191 L/h/kg | 4.01
CCNc1nc(Nc2cnn(C3CC(C#N)C3)c2C)ncc1C(F)(F)F (stereo not shown) [Compound 27] | – | 0.469 L/h/kg | 0.88
CCNc1nc(Nc2cc(C(C)(C)C#N)nn2C2CC2)ncc1C(F)(F)F [Compound 131] | < 30 nM and 4.98 nM | 0.1342 L/h/kg | –
[2H]C([2H])([2H])Nc1nc(Nc2cn(C(C)(C)C#N)nc2C)ncc1C(F)(F)F [Compound 67] | < 30 nM | – | –
CCNc1nc(Nc2cn(C3C[C@@H]3C#N)nc2Cl)ncc1C(F)(F)F (single isomer, unassigned) [Compound 206] | < 30 nM | – | –
[2H]C([2H])([2H])n1nc([C@@]23C[C@@H]2COC3=O)cc1Nc1ncc(C(F)(F)F)c(NCC)n1 [Compound 184] | < 30 nM | – | –
Cc1nn(C(C)(C)C#N)cc1Nc1ncc(C(F)(F)F)c(NCC(F)F)n1 [Compound 59] | < 30 nM | – | –

Results, then the molecule that gave them:

IC50 (LRRK2 G2019S enzyme) | Human liver microsomes CLhep [1] | efflux ratio at 1 μM (MDR1 (P-glycoprotein)) | SMILES
< 30 nM and 1.21 nM | 0.469 L/h/kg | – | CCNc1nc(Nc2cc(C3(C)CCOC3=O)nn2C2CC2)ncc1C(F)(F)F (single isomer, unassigned) [Compound 143]
< 30 nM and 0.96 nM | 0.6954 L/h/kg | – | CCNc1nc(Nc2cn(C3(C)CCOC3=O)nc2C2CC2)ncc1C(F)(F)F (single isomer, unassigned) [Compound 104]
< 30 nM and 0.72 nM | 0.5914 L/h/kg | – | CNc1nc(Nc2cn(C3(C)CCOC3=O)nc2C2CC2)ncc1C(F)(F)F (single isomer, unassigned) [Compound 122]
< 30 nM and 1.95 nM | 0.3311 L/h/kg | – | CNc1nc(Nc2cc(C3(C)CCOC3=O)nn2C2CC2)ncc1C(F)(F)F (single isomer, unassigned) [Compound 155]
< 30 nM and 1.05 nM | 0.99048 L/h/kg | – | CCNc1nc(Nc2cn(C3(C)CCOC3=O)nc2C2CC2)ncc1Br (single isomer, unassigned) [Compound 114]
< 30 nM | – | – | Cc1nn(C2(C)CCOC2=O)cc1Nc1ncc(C(F)(F)F)c(C2CC2)n1 (single isomer, unassigned) [Compound 103]
< 30 nM | – | – | CCNc1nc(Nc2cn(C3(C)CCOC3=O)nc2C2CC2)ncc1C(F)(F)F (stereo not shown) [Compound 108]
< 30 nM | – | – | CNc1nc(Nc2cn(C3(C)CCOC3=O)nc2Cl)ncc1C(F)(F)F (single isomer, unassigned) [Compound 99]
< 30 nM | – | – | CNc1nc(Nc2cn(C3(C)CCOC3=O)nc2Cl)ncc1C(F)(F)F (single isomer, unassigned) [Compound 123]
